In patent US20260265244A1, “HETEROCYCLIC COMPOUNDS AS STING ANTAGONISTS” (Boehringer Ingelheim International GmbH, priority 2022, published 2026):

Tests used:
human STING WT (R232) = target: T1, human STING WT (R232) (Homo sapiens, UniProt Q86WV6, H232R); experiment: Human STING HTRF binding assay (competitive, Cisbio 64BDSTGPEG)
T1 construct: purchased Cisbio 64BDSTGPEG
In short: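 Competitive HTRF: 6His-tagged human STING WT R232 binding domain (residues 138-379) with anti-6His Cryptate antibody and d2-labeled STING ligand, 180 min at room temperature, 1% DMSO, 8 concentrations from 10 μM or 1 μM top in ~1:5 steps. HTRF ratios were calibrated to a cGAMP standard curve and IC50 obtained by 4-parameter logistic fit.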

[1] = test system: STING inhibition in human whole blood (IFNα2α production); experiment: Human whole blood assay (HWBA): cGAMP-stimulated IFNα2α production; format: cell-based; conditions: Homo sapiens
In short: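 Na-citrate human whole blood from ≥3 healthy donors, preincubated 60 min at room temperature with compound (8 concentrations, top 10 μM, ~1:5 steps, 0.1% DMSO), then stimulated with cGAMP and incubated 22 h at 37 °C. Plasma IFNα2α measured by MSD immunoassay; % control versus stimulated/unstimulated wells, IC50 by 4-parameter logistic fit.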

T1 sequence (Q86WV6 138-379 H232R): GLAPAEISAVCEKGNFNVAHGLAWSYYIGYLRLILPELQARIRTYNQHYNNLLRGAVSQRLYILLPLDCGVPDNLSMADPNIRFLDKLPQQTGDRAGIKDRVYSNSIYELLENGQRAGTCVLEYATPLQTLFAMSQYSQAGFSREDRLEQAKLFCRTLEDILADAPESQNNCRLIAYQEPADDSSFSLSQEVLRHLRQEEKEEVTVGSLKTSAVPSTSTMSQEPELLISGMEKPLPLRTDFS

Compound	IC50 (human STING WT (R232))	IC50 [1]
Cc1nc2nn(CC(F)F)cc2cc1-n1nc(-c2cccc3nn(C[C@H](O)c4ccccc4)cc23)c(C(C)C)c1C [Example 103, (1R)-2-(4-{1-[2-(2,2-difluoroethyl)-6-methyl-2H-pyrazolo[3,4-b]pyridin-5-yl]-5-methyl-4-(propan-2-yl)-1H-pyrazol-3-yl}-2H-indazol-2-yl)-1-phenylethan-1-ol]	9.3 nM	44 nM
Cn1c(-c2cc3cn(CCC#N)nc3nc2C2CC2)nc(-c2cccc3nn(C[C@H](O)c4ccccc4)cc23)c1C1CC1 [Example 104, 3-[6-cyclopropyl-5-(5-cyclopropyl-4-{2-[(2R)-2-hydroxy-2-phenylethyl]-2H-indazol-4-yl}-1-methyl-1H-imidazol-2-yl)-2H-pyrazolo[3,4-b]pyridin-2-yl]propanenitrile]	2 nM	49 nM
Cc1nc2cc(C)c(-n3nc(-c4cccc5nn(C[C@H](O)c6ccccc6)cc45)c(C(C)C)c3C)cc2[nH]1 [Example 105, (1R)-2-{4-[1-(2,5-dimethyl-1H-1,3-benzodiazol-6-yl)-5-methyl-4-(propan-2-yl)-1H-pyrazol-3-yl]-2H-indazol-2-yl}-1-phenylethan-1-ol]	78.1 nM	1600 nM
CCc1nc2nn(C)cc2cc1-c1nc(-c2cccc3nn(C[C@H](F)c4ccccc4)cc23)c(C2CC2)n1C [Example 107, 4-(5-cyclopropyl-2-{6-ethyl-2-methyl-2H-pyrazolo[3,4-b]pyridin-5-yl}-1-methyl-1H-imidazol-4-yl)-2-[(2R)-2-fluoro-2-phenylethyl]-2H-indazole]	3.8 nM	31 nM
Cc1nc2nn(C)cc2cc1-n1nc(-c2cccc3nn(C[C@H](OCC(N)=O)c4ccccc4)cc23)c(C(C)C)c1C [Example 108, 2-[(1R) -2-[4-(1-{2,6-dimethyl-2H-pyrazolo[3,4-b]pyridin-5-yl}-5-methyl-4-(propan-2-yl)-1H-pyrazol-3-yl)-2H-indazol-2-yl]-1-phenylethoxy]acetamide]	5.8 nM	38 nM
CC(C)c1c(-c2cccc3nn(C[C@H](O)c4ccccc4)cc23)nc(-c2cc3cn(C)nc3cc2OC(F)(F)F)n1C [Example 109, (1R)-2-(4-{1-methyl-2-[2-methyl-6-(trifluoromethoxy)-2H-indazol-5-yl]-5-(propan-2-yl)-1H-imidazol-4-yl}-2H-indazol-2-yl)-1-phenylethan-1-ol]	18.8 nM	78 nM
Cn1cc2cc(-c3nc(-c4cccc5nn(C[C@H](O)c6ccccc6)cc45)c(C4CC4)n3C)c(C3CC3(F)F)nc2n1 (stereo partly drawn) [Example 110, (1R)-2-(4-{5-cyclopropyl-2-[6-(2,2-difluorocyclopropyl)-2-methyl-2H-pyrazolo[3,4-b]pyridin-5-yl]-1-methyl-1H-imidazol-4-yl}-2H-indazol-2-yl)-1-phenylethan-1-ol]	8.3 nM	85 nM
Cc1c(C(C)C)c(-c2cccc3nn(C[C@H](O)c4ccccc4)cc23)nn1-c1cc2cn(C)nc2nc1C1CCCN1 (stereo partly drawn) [Example 111, (1R)-2-(4-{5-Methyl-1-[2-methyl-6-(pyrrolidin-2-yl)-2H-pyrazolo[3,4-b]pyridin-5-yl]-4-(propan-2-yl)-1H-pyrazol-3-yl}-2H-indazol-2-yl)-1-phenylethan-1-ol]	25.2 nM	750 nM

The remaining lines, values ahead:

IC50 (human STING WT (R232))	IC50 [1]	Compound
3.2 nM	28 nM	Cc1c(C(C)C)c(-c2cccc3nn(C[C@H](O)c4ccccc4)cc23)nn1-c1cc2cn(C)nc2nc1CO [Example 106, (1R)-2-(4-{1-[6-(hydroxymethyl)-2-methyl-2H-pyrazolo[3,4-b]pyridin-5-yl]-5-methyl-4-(propan-2-yl)-1H-pyrazol-3-yl}-2H-indazol-2-yl)-1-phenylethan-1-ol]
31.7 nM	170 nM	Cc1c(C(C)C)c(-c2cccc3nn(C[C@H](O)c4ccccc4)cc23)nn1-c1cc2cn(C)nc2nc1CN(C)C [Example 112]
62.8 nM	1200 nM	Cc1c(C(C)C)c(-c2cccc3nn(C[C@H](O)c4ccccc4)cc23)nn1-c1cc2cn(C)nc2nc1C(C)(C)C [Example 113, (1R)-2-[4-(1-{6-tert-butyl-2-methyl-2H-pyrazolo[3,4-b]pyridin-5-yl}-5-methyl-4-(propan-2-yl)-1 H-pyrazol-3-yl)-2H-indazol-2-yl]-1-phenylethan-1-ol]
